Experimental data from the NIST ThermoML archive (doi:10.1021/je700546r).
“And” between values parts separate entries of the source, which are not always exact repeats. Equal values may be shown once.

Assay: molar heat capacity at saturation pressure
Conditions: Small (less than 1 g) adiabatic calorimetry

ON=C1CCCCC1 [cyclohexanone oxime]
Conditions | molar heat capacity
224.01 K, Crystal 3 | 136.62 J/K/mol
224.62 K, Crystal 3 | 137.24 J/K/mol
224.76 K, Crystal 3 | 137.52 J/K/mol
225.92 K, Crystal 3 | 138.42 J/K/mol
226.48 K, Crystal 3 | 138.92 J/K/mol
226.5 K, Crystal 3 | 139.12 J/K/mol
227.85 K, Crystal 3 | 140.09 J/K/mol
228.24 K, Crystal 3 | 140.6 J/K/mol
228.33 K, Crystal 3 | 140.45 J/K/mol
229.78 K, Crystal 3 | 141.6 J/K/mol
229.98 K, Crystal 3 | 141.91 J/K/mol
230.18 K, Crystal 3 | 141.86 J/K/mol
231.71 K, Crystal 3 | 143.03 J/K/mol and 143.15 J/K/mol
232.03 K, Crystal 3 | 143.15 J/K/mol
233.43 K, Crystal 3 | 144.26 J/K/mol
233.64 K, Crystal 3 | 144.32 J/K/mol
233.87 K, Crystal 3 | 144.33 J/K/mol
235.14 K, Crystal 3 | 145.41 J/K/mol
235.57 K, Crystal 3 | 145.51 J/K/mol
235.71 K, Crystal 3 | 145.65 J/K/mol
236.85 K, Crystal 3 | 146.62 J/K/mol
237.5 K, Crystal 3 | 146.68 J/K/mol
237.54 K, Crystal 3 | 146.94 J/K/mol
238.56 K, Crystal 3 | 147.84 J/K/mol
239.36 K, Crystal 3 | 148.9 J/K/mol
239.43 K, Crystal 3 | 148.81 J/K/mol
239.79 K, Crystal 3 | 150.04 J/K/mol
241.18 K, Crystal 3 | 153.75 J/K/mol
241.36 K, Crystal 3 | 153.6 J/K/mol
241.48 K, Crystal 3 | 154.07 J/K/mol
242.99 K, Crystal 2 | 148.41 J/K/mol
243.3 K, Crystal 2 | 148.43 J/K/mol
243.42 K, Crystal 2 | 148.52 J/K/mol
244.82 K, Crystal 2 | 149.34 J/K/mol
245.25 K, Crystal 2 | 149.53 J/K/mol
245.37 K, Crystal 2 | 149.83 J/K/mol
246.66 K, Crystal 2 | 150.69 J/K/mol
247.07 K, Crystal 2 | 151.16 J/K/mol
247.18 K, Crystal 2 | 150.98 J/K/mol
248.48 K, Crystal 2 | 152.19 J/K/mol
248.78 K, Crystal 2 | 152.63 J/K/mol
250.29 K, Crystal 2 | 153.82 J/K/mol
250.48 K, Crystal 2 | 154.01 J/K/mol
252.11 K, Crystal 2 | 155.49 J/K/mol
252.36 K, Crystal 2 | 155.81 J/K/mol
253.91 K, Crystal 2 | 157.22 J/K/mol
254.12 K, Crystal 2 | 157.42 J/K/mol
255.71 K, Crystal 2 | 159 J/K/mol
255.8 K, Crystal 2 | 159.11 J/K/mol
257.47 K, Crystal 2 | 160.79 J/K/mol
257.5 K, Crystal 2 | 160.82 J/K/mol
259.14 K, Crystal 2 | 162.49 J/K/mol
259.28 K, Crystal 2 | 162.64 J/K/mol
260.8 K, Crystal 2 | 164.29 J/K/mol
261.05 K, Crystal 2 | 164.53 J/K/mol
262.46 K, Crystal 2 | 166.09 J/K/mol
262.82 K, Crystal 2 | 166.41 J/K/mol
264.11 K, Crystal 2 | 167.84 J/K/mol
264.58 K, Crystal 2 | 168.33 J/K/mol
265.75 K, Crystal 2 | 169.58 J/K/mol
266.34 K, Crystal 2 | 170.21 J/K/mol
267.39 K, Crystal 2 | 171.43 J/K/mol
268.08 K, Crystal 2 | 172.13 J/K/mol
269.02 K, Crystal 2 | 173.27 J/K/mol
269.82 K, Crystal 2 | 174.08 J/K/mol
270.64 K, Crystal 2 | 175.04 J/K/mol
271.56 K, Crystal 2 | 175.95 J/K/mol
272.26 K, Crystal 2 | 176.79 J/K/mol
273.28 K, Crystal 2 | 177.73 J/K/mol
273.87 K, Crystal 2 | 178.52 J/K/mol
275.02 K, Crystal 2 | 179.53 J/K/mol
275.47 K, Crystal 2 | 180.26 J/K/mol
276.74 K, Crystal 2 | 181.37 J/K/mol
277.08 K, Crystal 2 | 181.92 J/K/mol
278.45 K, Crystal 2 | 183.01 J/K/mol
278.67 K, Crystal 2 | 183.43 J/K/mol
280.15 K, Crystal 2 | 184.62 J/K/mol
280.26 K, Crystal 2 | 185.03 J/K/mol
281.85 K, Crystal 2 | 186.12 J/K/mol and 186.38 J/K/mol
283.43 K, Crystal 2 | 187.69 J/K/mol
283.54 K, Crystal 2 | 187.5 J/K/mol
285.01 K, Crystal 2 | 188.93 J/K/mol
285.24 K, Crystal 2 | 188.79 J/K/mol
286.58 K, Crystal 2 | 189.97 J/K/mol
286.93 K, Crystal 2 | 189.9 J/K/mol
288.15 K, Crystal 2 | 191 J/K/mol
288.61 K, Crystal 2 | 190.97 J/K/mol
289.72 K, Crystal 2 | 191.92 J/K/mol
290.29 K, Crystal 2 | 191.83 J/K/mol
291.28 K, Crystal 2 | 192.69 J/K/mol
291.97 K, Crystal 2 | 192.78 J/K/mol
292.14 K, Crystal 2 | 192.79 J/K/mol
292.85 K, Crystal 2 | 193.59 J/K/mol
293.65 K, Crystal 2 | 193.64 J/K/mol
293.7 K, Crystal 2 | 193.66 J/K/mol
294.41 K, Crystal 2 | 194.19 J/K/mol
295.26 K, Crystal 2 | 194.41 J/K/mol
295.32 K, Crystal 2 | 194.51 J/K/mol
295.97 K, Crystal 2 | 194.99 J/K/mol
296.81 K, Crystal 2 | 195.24 J/K/mol
297 K, Crystal 2 | 195.34 J/K/mol
297.53 K, Crystal 2 | 195.76 J/K/mol
298.36 K, Crystal 2 | 196.04 J/K/mol
298.66 K, Crystal 2 | 196.34 J/K/mol
299.09 K, Crystal 2 | 196.66 J/K/mol
299.91 K, Crystal 2 | 197.34 J/K/mol
300.33 K, Crystal 2 | 197.85 J/K/mol
300.64 K, Crystal 2 | 198.3 J/K/mol
301.45 K, Crystal 2 | 198.75 J/K/mol
301.99 K, Crystal 1 | 196.75 J/K/mol
302.19 K, Crystal 1 | 195.88 J/K/mol
303.01 K, Crystal 1 | 192.59 J/K/mol
303.67 K, Crystal 1 | 191.89 J/K/mol
303.76 K, Crystal 1 | 191.84 J/K/mol
304.57 K, Crystal 1 | 191.66 J/K/mol
305.34 K, Crystal 1 | 191.58 J/K/mol
305.36 K, Crystal 1 | 191.49 J/K/mol
305.83 K, Crystal 1 | 191.51 J/K/mol
306.14 K, Crystal 1 | 191.69 J/K/mol
306.91 K, Crystal 1 | 191.81 J/K/mol
307.05 K, Crystal 1 | 191.78 J/K/mol
307.6 K, Crystal 1 | 191.89 J/K/mol
307.71 K, Crystal 1 | 191.96 J/K/mol
308.49 K, Crystal 1 | 192.2 J/K/mol
308.74 K, Crystal 1 | 192.41 J/K/mol
309.27 K, Crystal 1 | 192.53 J/K/mol
309.38 K, Crystal 1 | 192.47 J/K/mol
310.07 K, Crystal 1 | 192.72 J/K/mol
310.43 K, Crystal 1 | 193 J/K/mol
310.95 K, Crystal 1 | 193.22 J/K/mol
311.16 K, Crystal 1 | 193.22 J/K/mol
311.68 K, Crystal 1 | 193.28 J/K/mol
312.22 K, Crystal 1 | 193.77 J/K/mol
312.72 K, Crystal 1 | 193.93 J/K/mol
312.94 K, Crystal 1 | 194.04 J/K/mol
313.36 K, Crystal 1 | 194.05 J/K/mol
314.11 K, Crystal 1 | 194.56 J/K/mol
314.48 K, Crystal 1 | 194.7 J/K/mol
314.72 K, Crystal 1 | 194.7 J/K/mol
315.03 K, Crystal 1 | 194.86 J/K/mol
316 K, Crystal 1 | 195.45 J/K/mol
316.25 K, Crystal 1 | 195.55 J/K/mol
316.49 K, Crystal 1 | 195.61 J/K/mol
316.71 K, Crystal 1 | 195.66 J/K/mol
317.89 K, Crystal 1 | 196.42 J/K/mol
318.01 K, Crystal 1 | 196.38 J/K/mol
318.27 K, Crystal 1 | 196.48 J/K/mol
318.38 K, Crystal 1 | 196.46 J/K/mol
319.77 K, Crystal 1 | 197.45 J/K/mol and 197.36 J/K/mol
320.04 K, Crystal 1 | 197.43 J/K/mol
320.11 K, Crystal 1 | 197.4 J/K/mol
321.54 K, Crystal 1 | 198.27 J/K/mol
321.81 K, Crystal 1 | 198.43 J/K/mol
321.98 K, Crystal 1 | 198.37 J/K/mol
323.3 K, Crystal 1 | 199.26 J/K/mol
323.58 K, Crystal 1 | 199.58 J/K/mol
323.8 K, Crystal 1 | 199.44 J/K/mol
325.05 K, Crystal 1 | 200.28 J/K/mol
325.35 K, Crystal 1 | 200.52 J/K/mol
325.62 K, Crystal 1 | 200.47 J/K/mol
326.81 K, Crystal 1 | 201.27 J/K/mol
327.11 K, Crystal 1 | 201.48 J/K/mol
327.43 K, Crystal 1 | 201.55 J/K/mol
328.56 K, Crystal 1 | 202.22 J/K/mol
328.87 K, Crystal 1 | 202.64 J/K/mol
329.24 K, Crystal 1 | 202.56 J/K/mol
330.32 K, Crystal 1 | 203.27 J/K/mol
330.63 K, Crystal 1 | 203.71 J/K/mol
331.06 K, Crystal 1 | 203.58 J/K/mol
331.23 K, Crystal 1 | 203.73 J/K/mol
332.4 K, Crystal 1 | 204.63 J/K/mol
332.88 K, Crystal 1 | 204.71 J/K/mol
332.98 K, Crystal 1 | 204.75 J/K/mol
334.15 K, Crystal 1 | 205.6 J/K/mol
334.7 K, Crystal 1 | 205.74 J/K/mol
334.74 K, Crystal 1 | 205.77 J/K/mol
335.91 K, Crystal 1 | 206.77 J/K/mol
336.49 K, Crystal 1 | 206.75 J/K/mol
336.52 K, Crystal 1 | 206.77 J/K/mol
337.67 K, Crystal 1 | 207.8 J/K/mol
338.25 K, Crystal 1 | 207.78 J/K/mol
338.35 K, Crystal 1 | 207.86 J/K/mol
339.42 K, Crystal 1 | 208.77 J/K/mol
339.99 K, Crystal 1 | 208.85 J/K/mol
340.17 K, Crystal 1 | 209 J/K/mol
341.17 K, Crystal 1 | 209.83 J/K/mol
341.74 K, Crystal 1 | 209.95 J/K/mol
341.99 K, Crystal 1 | 210.15 J/K/mol
342.93 K, Crystal 1 | 210.86 J/K/mol
343.49 K, Crystal 1 | 210.94 J/K/mol
343.81 K, Crystal 1 | 211.29 J/K/mol
344.68 K, Crystal 1 | 212.1 J/K/mol
345.25 K, Crystal 1 | 212.02 J/K/mol
345.63 K, Crystal 1 | 212.36 J/K/mol
346.43 K, Crystal 1 | 213.18 J/K/mol
346.99 K, Crystal 1 | 213.12 J/K/mol
347.45 K, Crystal 1 | 213.43 J/K/mol
348.18 K, Crystal 1 | 214.14 J/K/mol
348.74 K, Crystal 1 | 214.13 J/K/mol
349.27 K, Crystal 1 | 214.58 J/K/mol
349.93 K, Crystal 1 | 215.3 J/K/mol
350.48 K, Crystal 1 | 215.24 J/K/mol
351.09 K, Crystal 1 | 215.74 J/K/mol
351.67 K, Crystal 1 | 216.38 J/K/mol
352.41 K, Crystal 1 | 216.96 J/K/mol
352.91 K, Crystal 1 | 217.26 J/K/mol
353.42 K, Crystal 1 | 217.49 J/K/mol
354.55 K, Crystal 1 | 219.52 J/K/mol
354.73 K, Crystal 1 | 219 J/K/mol
355.16 K, Crystal 1 | 218.64 J/K/mol
363.8 K, Liquid | 272.42 J/K/mol
364.48 K, Liquid | 272.66 J/K/mol
364.59 K, Liquid | 273 J/K/mol
365.34 K, Liquid | 273.22 J/K/mol
365.92 K, Liquid | 273.48 J/K/mol
366.16 K, Liquid | 273.91 J/K/mol
366.88 K, Liquid | 274.16 J/K/mol
367.36 K, Liquid | 274.33 J/K/mol
367.52 K, Liquid | 274.57 J/K/mol
367.73 K, Liquid | 274.96 J/K/mol
368.42 K, Liquid | 275.12 J/K/mol
368.79 K, Liquid | 275.25 J/K/mol
368.96 K, Liquid | 275.31 J/K/mol
